Tests used:
[1] = Dissociation constant was measured in water; format: physicochemical
[2] = Tested for inhibition of DNA synthesis at a dose range of 1.9-2.4 ug/ml after 30 min; range of 8-10 uM; format: functional

Row | Compound | pKa ([1]; water, read-out: pKa) | pKa ([1]; buffer) | further results
1 | CCCCCCCCCCCCNC(=O)[C@@H](N)COC |  |  | pKa [1]: 5.9; IC50 [2]: 10 µM
2 | CCCCCCCCCCCCn1ccnc1 [listing 1 of 2 here] |  | 7.5 | 
3 | CCCCCCCCCCCCn1ccnc1 [listing 2 of 2 here] | 6.3 |  | 
4 | Cn1ccnc1 [1-METHYLIMIDAZOLE] | 7 |  | 

Now from value to compound, other results behind:

Row | pKa ([1]; water, read-out: pKa) | pKa ([1]; buffer) | Compound | further results
5 | 7.5 |  | CCCCCCCCCCCCNC(=O)[C@@H](N)CO | 
6 |  | 5.8 | CCCCCCCCCCCCNC(=O)[C@@H](N)CO.Cl | 

Reference: ChEMBL document CHEMBL1128881, “The in vitro effects of three lysosomotropic detergents against three human tumor cell lines” (Bioorg Med Chem Lett, 1995)
